Source: the kinase profiling compilation of Christmann-Franck et al. (2016)

Columns and labels:
Test in all cases: KINOMEscan competition binding
Settings in all cases: compound 10.0 µM
[1] = system: ABL1 (human), P00519 [F317L]
[2] = target: IKBKE (human) (UniProt Q14164)
[3] = target: RPS6KA2 KD1 (human) (UniProt Q15349)
[4] = target: PDPK1 (human) (UniProt O15530)
[5] = target: EPHB1 (human) (UniProt P54762)
[6] = target: PIK3C2B (human) (UniProt O00750)
[7] = target: EPHA1 (human) (UniProt P21709)
[8] = target: CAMK4 (human) (UniProt Q16566)
[9] = target: CSNK1A1L (human) (UniProt Q8N752)
[10] = target: DDR1 (human) (UniProt Q08345)
[11] = target: MAP3K3 (human) (UniProt Q99759)
[12] = target: CDK3 (human) (UniProt Q00526)
[13] = target: MAPKAPK5 (human) (UniProt Q8IW41)
[14] = target: IKBKB (human) (UniProt O14920)
[15] = target: MAP4K3 (human) (UniProt Q8IVH8)
[16] = target: CAMK1D (human) (UniProt Q8IU85)
[17] = target: STK36 (human) (UniProt Q9NRP7)
[18] = target: PIK3CB (human) (UniProt P42338)
[19] = target: ACVR1B (human) (UniProt P36896)
[20] = system: ABL1 (human), P00519 [E255K]
[21] = target: NTRK1 (human) (UniProt P04629)
[22] = target: FGFR1 (human) (UniProt P11362)
[23] = target: LCK (human) (UniProt P06239)
[24] = target: MAPK11 (human) (UniProt Q15759)
[25] = target: PRKCD (human) (UniProt Q05655)
[26] = target: ADCK3 (human) (UniProt Q8NI60)
[27] = target: CSK (human) (UniProt P41240)
[28] = target: NEK6 (human) (UniProt Q9HC98)
[29] = target: CDK5 (human) (UniProt Q00535)
[30] = target: TXK (human) (UniProt P42681)
[31] = target: FGFR3 (human) (UniProt P22607)
[32] = target: STK4 (human) (UniProt Q13043)
[33] = target: GSK3B (human) (UniProt P49841)
[34] = target: TLK2 (human) (UniProt Q86UE8)
[35] = target: EPHA8 (human) (UniProt P29322)
[36] = target: MAP3K9 (human) (UniProt P80192)
[37] = target: AXL (human) (UniProt P30530)
[38] = target: ABL1 (human) (UniProt P00519)
[39] = target: PLK3 (human) (UniProt Q9H4B4)
[40] = target: WEE1 (human) (UniProt P30291)
[41] = target: MYO3B (human) (UniProt Q8WXR4)
[42] = target: EPHA3 (human) (UniProt P29320)

Chain of PIK3C2B (human) (O00750 whole entry, looked up): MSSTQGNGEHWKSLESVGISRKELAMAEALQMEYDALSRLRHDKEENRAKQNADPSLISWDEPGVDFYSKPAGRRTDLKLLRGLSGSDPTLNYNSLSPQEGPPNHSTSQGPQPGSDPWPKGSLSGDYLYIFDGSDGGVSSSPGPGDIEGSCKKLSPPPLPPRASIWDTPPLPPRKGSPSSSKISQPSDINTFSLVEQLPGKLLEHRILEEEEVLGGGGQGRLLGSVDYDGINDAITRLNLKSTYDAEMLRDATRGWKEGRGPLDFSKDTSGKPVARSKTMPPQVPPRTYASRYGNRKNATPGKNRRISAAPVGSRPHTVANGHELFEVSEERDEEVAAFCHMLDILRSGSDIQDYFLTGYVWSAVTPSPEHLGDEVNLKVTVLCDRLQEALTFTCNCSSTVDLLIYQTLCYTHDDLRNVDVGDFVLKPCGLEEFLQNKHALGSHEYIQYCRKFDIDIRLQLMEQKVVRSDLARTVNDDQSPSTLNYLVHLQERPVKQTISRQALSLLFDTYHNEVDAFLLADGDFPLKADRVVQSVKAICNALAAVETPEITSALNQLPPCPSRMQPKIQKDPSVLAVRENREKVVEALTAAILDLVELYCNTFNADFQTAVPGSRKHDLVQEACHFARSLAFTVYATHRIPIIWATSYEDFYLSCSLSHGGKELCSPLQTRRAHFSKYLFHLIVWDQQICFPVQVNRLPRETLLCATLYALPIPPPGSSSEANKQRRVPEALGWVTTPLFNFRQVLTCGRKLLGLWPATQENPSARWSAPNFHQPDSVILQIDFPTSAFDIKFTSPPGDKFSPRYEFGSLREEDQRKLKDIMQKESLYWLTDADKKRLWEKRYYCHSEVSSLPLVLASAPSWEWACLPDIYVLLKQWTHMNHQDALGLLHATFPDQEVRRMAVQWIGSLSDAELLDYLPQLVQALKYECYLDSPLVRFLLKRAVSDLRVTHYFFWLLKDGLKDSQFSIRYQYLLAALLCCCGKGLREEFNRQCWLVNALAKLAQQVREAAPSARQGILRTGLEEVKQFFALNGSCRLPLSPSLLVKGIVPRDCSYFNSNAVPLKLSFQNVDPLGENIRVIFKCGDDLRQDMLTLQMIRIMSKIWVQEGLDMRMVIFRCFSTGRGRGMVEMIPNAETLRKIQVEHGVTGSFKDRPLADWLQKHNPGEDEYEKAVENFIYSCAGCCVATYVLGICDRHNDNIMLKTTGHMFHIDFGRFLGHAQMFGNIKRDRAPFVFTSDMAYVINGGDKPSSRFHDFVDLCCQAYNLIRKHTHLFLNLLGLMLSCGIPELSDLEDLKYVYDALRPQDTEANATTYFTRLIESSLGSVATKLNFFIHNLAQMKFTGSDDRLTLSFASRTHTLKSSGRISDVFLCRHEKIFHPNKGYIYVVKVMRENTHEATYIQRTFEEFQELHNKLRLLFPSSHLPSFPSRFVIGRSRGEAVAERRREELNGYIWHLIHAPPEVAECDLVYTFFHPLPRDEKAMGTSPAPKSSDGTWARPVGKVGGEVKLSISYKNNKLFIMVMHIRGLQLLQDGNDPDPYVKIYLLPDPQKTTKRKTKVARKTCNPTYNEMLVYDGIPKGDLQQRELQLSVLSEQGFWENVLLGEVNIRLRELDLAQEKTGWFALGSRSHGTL
Chain of CDK5 (human) (Q00535 whole entry, looked up): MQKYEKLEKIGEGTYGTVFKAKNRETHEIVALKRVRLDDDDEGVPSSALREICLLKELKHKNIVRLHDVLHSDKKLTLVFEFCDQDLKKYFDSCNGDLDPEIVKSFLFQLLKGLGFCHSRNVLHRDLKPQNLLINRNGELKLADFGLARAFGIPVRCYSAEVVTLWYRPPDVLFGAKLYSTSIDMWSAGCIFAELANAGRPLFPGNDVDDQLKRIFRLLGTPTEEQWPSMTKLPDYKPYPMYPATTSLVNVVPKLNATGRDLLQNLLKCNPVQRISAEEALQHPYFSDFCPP
Chain of ABL1 (human) (P00519 whole entry, looked up): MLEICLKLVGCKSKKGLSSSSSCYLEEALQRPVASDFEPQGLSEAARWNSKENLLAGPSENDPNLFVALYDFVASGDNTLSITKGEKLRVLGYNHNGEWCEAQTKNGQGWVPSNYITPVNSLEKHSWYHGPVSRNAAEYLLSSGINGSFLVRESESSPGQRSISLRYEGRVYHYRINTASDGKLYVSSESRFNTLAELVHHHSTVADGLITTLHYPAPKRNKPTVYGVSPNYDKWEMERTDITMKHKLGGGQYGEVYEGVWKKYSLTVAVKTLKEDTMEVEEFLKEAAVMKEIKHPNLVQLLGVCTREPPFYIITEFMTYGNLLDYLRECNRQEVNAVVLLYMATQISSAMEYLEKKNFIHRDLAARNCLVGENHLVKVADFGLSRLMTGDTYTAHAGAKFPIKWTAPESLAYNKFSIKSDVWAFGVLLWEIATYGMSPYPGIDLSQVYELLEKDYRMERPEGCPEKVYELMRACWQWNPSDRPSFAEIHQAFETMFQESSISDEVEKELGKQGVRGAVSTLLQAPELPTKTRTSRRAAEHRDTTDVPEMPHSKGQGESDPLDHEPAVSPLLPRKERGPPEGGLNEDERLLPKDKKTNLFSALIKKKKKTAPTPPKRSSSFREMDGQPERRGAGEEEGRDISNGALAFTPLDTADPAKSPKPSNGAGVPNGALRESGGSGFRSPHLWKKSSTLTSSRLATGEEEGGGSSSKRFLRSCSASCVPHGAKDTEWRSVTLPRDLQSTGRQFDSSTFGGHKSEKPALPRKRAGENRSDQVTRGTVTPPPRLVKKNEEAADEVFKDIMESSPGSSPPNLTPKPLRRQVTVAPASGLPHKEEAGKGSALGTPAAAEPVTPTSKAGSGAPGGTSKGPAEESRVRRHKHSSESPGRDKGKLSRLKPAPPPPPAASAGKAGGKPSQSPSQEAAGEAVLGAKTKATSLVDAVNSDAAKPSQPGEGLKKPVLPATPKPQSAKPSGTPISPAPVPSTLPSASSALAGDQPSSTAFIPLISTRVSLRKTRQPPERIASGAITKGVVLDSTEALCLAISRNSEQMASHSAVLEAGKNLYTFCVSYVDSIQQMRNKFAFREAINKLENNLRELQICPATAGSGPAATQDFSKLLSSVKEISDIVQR
Chain of CDK3 (human) (Q00526 whole entry, looked up): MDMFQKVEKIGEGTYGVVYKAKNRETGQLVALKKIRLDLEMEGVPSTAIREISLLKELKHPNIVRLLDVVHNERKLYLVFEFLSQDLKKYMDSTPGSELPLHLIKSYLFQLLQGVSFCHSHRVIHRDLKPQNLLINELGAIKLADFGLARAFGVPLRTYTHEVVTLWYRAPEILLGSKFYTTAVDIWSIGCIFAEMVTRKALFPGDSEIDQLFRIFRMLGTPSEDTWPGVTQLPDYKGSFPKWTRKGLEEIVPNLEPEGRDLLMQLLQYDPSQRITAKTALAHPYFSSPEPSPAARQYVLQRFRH
Chain of CSNK1A1L (human) (Q8N752 whole entry, looked up): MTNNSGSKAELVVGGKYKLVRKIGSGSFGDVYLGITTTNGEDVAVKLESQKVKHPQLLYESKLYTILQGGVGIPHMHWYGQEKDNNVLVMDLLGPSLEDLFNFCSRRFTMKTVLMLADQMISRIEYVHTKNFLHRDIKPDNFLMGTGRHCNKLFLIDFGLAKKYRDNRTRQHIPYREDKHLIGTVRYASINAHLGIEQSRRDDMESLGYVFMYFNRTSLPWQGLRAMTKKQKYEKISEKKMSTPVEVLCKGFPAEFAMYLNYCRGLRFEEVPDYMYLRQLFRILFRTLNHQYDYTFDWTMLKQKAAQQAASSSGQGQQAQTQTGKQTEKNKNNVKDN
Chain of ACVR1B (human) (P36896 whole entry, looked up): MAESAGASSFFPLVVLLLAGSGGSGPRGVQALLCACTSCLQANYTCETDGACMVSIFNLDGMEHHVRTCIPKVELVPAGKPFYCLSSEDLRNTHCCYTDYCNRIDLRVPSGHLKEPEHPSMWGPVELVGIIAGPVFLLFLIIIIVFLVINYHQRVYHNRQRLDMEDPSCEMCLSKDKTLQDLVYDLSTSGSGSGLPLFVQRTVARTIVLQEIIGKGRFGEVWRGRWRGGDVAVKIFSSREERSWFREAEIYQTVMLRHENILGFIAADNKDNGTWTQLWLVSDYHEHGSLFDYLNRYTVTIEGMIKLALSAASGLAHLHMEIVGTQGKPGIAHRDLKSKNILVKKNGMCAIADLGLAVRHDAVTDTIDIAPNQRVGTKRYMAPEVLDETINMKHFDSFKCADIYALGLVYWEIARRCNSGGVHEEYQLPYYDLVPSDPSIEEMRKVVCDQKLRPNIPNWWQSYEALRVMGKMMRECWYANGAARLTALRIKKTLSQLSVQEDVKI
Chain of GSK3B (human) (P49841 whole entry, looked up): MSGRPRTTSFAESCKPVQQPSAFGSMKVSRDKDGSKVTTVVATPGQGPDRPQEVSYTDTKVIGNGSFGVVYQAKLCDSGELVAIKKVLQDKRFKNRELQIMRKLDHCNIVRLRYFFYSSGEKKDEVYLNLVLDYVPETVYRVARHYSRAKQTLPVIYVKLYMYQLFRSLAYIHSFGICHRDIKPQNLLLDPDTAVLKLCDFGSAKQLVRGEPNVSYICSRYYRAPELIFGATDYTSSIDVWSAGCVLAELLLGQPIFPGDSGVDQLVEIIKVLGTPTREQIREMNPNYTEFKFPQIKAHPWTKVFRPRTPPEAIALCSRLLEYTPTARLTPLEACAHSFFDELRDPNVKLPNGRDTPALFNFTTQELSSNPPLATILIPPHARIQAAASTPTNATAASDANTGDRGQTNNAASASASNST
Chain of NEK6 (human) (Q9HC98 whole entry, looked up): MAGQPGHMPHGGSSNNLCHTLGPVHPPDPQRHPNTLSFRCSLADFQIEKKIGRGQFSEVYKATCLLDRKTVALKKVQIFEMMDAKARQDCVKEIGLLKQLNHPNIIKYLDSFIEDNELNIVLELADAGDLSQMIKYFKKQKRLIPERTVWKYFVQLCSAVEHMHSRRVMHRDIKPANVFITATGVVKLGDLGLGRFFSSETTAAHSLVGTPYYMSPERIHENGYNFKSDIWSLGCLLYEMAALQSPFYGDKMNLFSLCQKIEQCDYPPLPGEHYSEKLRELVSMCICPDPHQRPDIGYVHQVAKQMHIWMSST
Chain of ABL1 (human), P00519 [E255K] (P00519 whole entry E255K, looked up): as the sequence (P00519 whole entry, looked up) above, with E255K counted along it
Chain of ABL1 (human), P00519 [F317L] (P00519 whole entry F317L, looked up): as the sequence (P00519 whole entry, looked up) above, with F317L counted along it

## COc1cc(N2CCN(C)CC2)ccc1Nc1ncc2c(n1)N(C)c1sccc1C(=O)N2C
[1]
  kinase still bound, per cent of control: 1.8%
[2]
  kinase still bound, per cent of control: 100%
[3]
  kinase still bound, per cent of control: 82%
[4]
  kinase still bound, per cent of control: 93%
[5]
  kinase still bound, per cent of control: 88%
[6]
  kinase still bound, per cent of control: 85%
[7]
  kinase still bound, per cent of control: 87%
[8]
  kinase still bound, per cent of control: 80%
[9]
  kinase still bound, per cent of control: 93%
[10]
  kinase still bound, per cent of control: 100%
[11]
  kinase still bound, per cent of control: 72%
[12]
  kinase still bound, per cent of control: 100%
[13]
  kinase still bound, per cent of control: 69%
[14]
  kinase still bound, per cent of control: 65%
[15]
  kinase still bound, per cent of control: 79%
[16]
  kinase still bound, per cent of control: 71%
[17]
  kinase still bound, per cent of control: 100%
[18]
  kinase still bound, per cent of control: 90%
[19]
  kinase still bound, per cent of control: 86%
[20]
  kinase still bound, per cent of control: 85%
[21]
  kinase still bound, per cent of control: 60%
[22]
  kinase still bound, per cent of control: 100%
[23]
  kinase still bound, per cent of control: 100%
[24]
  kinase still bound, per cent of control: 85%
[25]
  kinase still bound, per cent of control: 100%
[26]
  kinase still bound, per cent of control: 100%
[27]
  kinase still bound, per cent of control: 88%
[28]
  kinase still bound, per cent of control: 35%
[29]
  kinase still bound, per cent of control: 74%
[30]
  kinase still bound, per cent of control: 72%
[31]
  kinase still bound, per cent of control: 100%
[32]
  kinase still bound, per cent of control: 100%
[33]
  kinase still bound, per cent of control: 97%
[34]
  kinase still bound, per cent of control: 93%
[35]
  kinase still bound, per cent of control: 89%
[36]
  kinase still bound, per cent of control: 100%
[37]
  kinase still bound, per cent of control: 75%
[38]
  kinase still bound, per cent of control: 79%
[39]
  kinase still bound, per cent of control: 22%
[40]
  kinase still bound, per cent of control: 100%
[41]
  kinase still bound, per cent of control: 52%
[42]
  kinase still bound, per cent of control: 71%

## CS(=O)(=O)Nc1ccc(-c2cc(/C=C3\SC(=N)NC3=O)c[nH]c2=O)cc1
[25]
  kinase still bound, per cent of control: 34%

## N=C1NC(=O)/C(=C/c2ccc(-c3csc4ccccc34)o2)S1
[8]
  kinase still bound, per cent of control: 25%
[10]
  kinase still bound, per cent of control: 33%
[28]
  kinase still bound, per cent of control: 25%
[33]
  kinase still bound, per cent of control: 12%

## CS(=O)(=O)Nc1ccc(-c2ncc(/C=C3\SC(=N)NC3=O)s2)cc1
[17]
  kinase still bound, per cent of control: 20%
[38]
  kinase still bound, per cent of control: 27%

## CSC1=NC(=O)/C(=C/c2c[nH]c(=O)c(-c3ccc(NS(C)(=O)=O)cc3)c2)S1
[14]
  kinase still bound, per cent of control: 25%

## N=C1NC(=O)/C(=C/c2ccc(-c3ccc(F)cc3O)o2)S1
[12]
  kinase still bound, per cent of control: 6.5%
[29]
  kinase still bound, per cent of control: 12%

## N=C1NC(=O)/C(=C/c2ccc(-c3ccccc3O)o2)S1
[6]
  kinase still bound, per cent of control: 31%
[12]
  kinase still bound, per cent of control: 24%

## CS(=O)(=O)Nc1ccc(-c2cncc(/C=C3\SC(=N)NC3=O)c2)cc1
[9]
  kinase still bound, per cent of control: 21%
[15]
  kinase still bound, per cent of control: 32%
[19]
  kinase still bound, per cent of control: 29%
[38]
  kinase still bound, per cent of control: 34%

## N=C1NC(=O)/C(=C/c2ccc(-c3ccc(C(N)=O)cc3O)o2)S1
[6]
  kinase still bound, per cent of control: 28%
[12]
  kinase still bound, per cent of control: 30%
[29]
  kinase still bound, per cent of control: 27%
